Reference: PubChem BioAssay AID248 (DTP/NCI, 2004)
Values joined by “and” are separate entries in the source; they are usually repeats but may differ in a detail not shown here. Equal entries are not always repeated. Toxic doses and inconclusive results are not listed.

Test system: L1210 leukemia ip in BDF1 mice, survival T/C
Assay: NCI In Vivo Anticancer Drug Screen. Data for tumor model L1210 Leukemia (intraperitoneal) in B6D2F1 (BDF1) mice
Details: endpoint: mean survival time, higher = longer survival
How it was run: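 Value reflects the ratio of survival in compound-treated mice to survival in vehicle-treated controls, with both groups carrying the same transplanted tumor.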

SMILES: NC(=S)N/N=C/c1ccc(O)cn1
- T/C (dose: 3.13 mg/kg/injection, schedule: Q03HX024 (ip), vehicle: Klucel (hydroxypropylcellulose) (HPC)): 120 % of control
- T/C (dose: 3.13 mg/kg/injection, schedule: Q03HX024 (ip), vehicle: other): 120 % of control
- T/C (dose: 3.13 mg/kg/injection, schedule: Q03HX024 (ip), vehicle: saline): 113 % of control
- T/C (dose: 6.25 mg/kg/injection, schedule: Q03HX024 (ip), vehicle: other): 106 % of control
- T/C (dose: 9.5 mg/kg/injection, schedule: Q01DX005 (iv), vehicle: other): 104 % of control
- T/C (dose: 11.0 mg/kg/injection, schedule: Q03HX032 (ip), vehicle: saline with Tween-80): 123 % of control
- T/C (dose: 12.5 mg/kg/injection, schedule: Q03HX024 (ip), vehicle: other): 106 % of control
- T/C (dose: 12.5 mg/kg/injection, schedule: Q03HX024 (ip), vehicle: saline): 159 % of control
- T/C (dose: 19.0 mg/kg/injection, schedule: Q01DX005 (iv), vehicle: other): 111 % of control
- T/C (dose: 25.0 mg/kg/injection, schedule: Q01DX015 (ip), vehicle: carboxymethylcellulose (CMC)): 158 % of control
- T/C (dose: 33.0 mg/kg/injection, schedule: Q## X008 (ip), vehicle: other): 124 % of control
- T/C (dose: 33.0 mg/kg/injection, schedule: Q## X016 (ip), vehicle: other): 122 % of control
- T/C (dose: 37.5 mg/kg/injection, schedule: Q01DX005 (ip), vehicle: other): 159 % of control
- T/C (dose: 40.0 mg/kg/injection, schedule: Q06HX016 (ip), vehicle: Klucel (hydroxypropylcellulose) (HPC)): 154 % of control
- T/C (dose: 44.0 mg/kg/injection, schedule: Q03HX032 (ip), vehicle: saline with Tween-80): 159 % of control
- T/C (dose: 50.0 mg/kg/injection, schedule: Q01DX001 (ip), vehicle: saline): 114 % of control
- T/C (dose: 50.0 mg/kg/injection, schedule: Q01DX009 (oral), vehicle: carboxymethylcellulose (CMC)): 120 % of control
- T/C (dose: 50.0 mg/kg/injection, schedule: Q03HX024 (ip), vehicle: other): 151 % of control
- T/C (dose: 50.0 mg/kg/injection, schedule: Q03HX024 (ip), vehicle: saline): 151 % of control
- T/C (dose: 62.0 mg/kg/injection, schedule: Q03HX032 (ip), vehicle: carboxymethylcellulose (CMC)): 118 % of control
- T/C (dose: 66.0 mg/kg/injection, schedule: Q03HX032 (ip), vehicle: saline with Tween-80): 102 % of control and 116 % of control
- T/C (dose: 75.0 mg/kg/injection, schedule: Q03HX008 (ip), vehicle: alkali diluted with saline): 156 % of control
- T/C (dose: 93.0 mg/kg/injection, schedule: Q03HX032 (ip), vehicle: carboxymethylcellulose (CMC)): 96 % of control
- T/C (dose: 100.0 mg/kg/injection, schedule: Q01DX001 (ip), vehicle: saline): 120 % of control
- T/C (dose: 100.0 mg/kg/injection, schedule: Q01DX001 (oral), vehicle: other): 106 % of control
- T/C (dose: 100.0 mg/kg/injection, schedule: Q01DX009 (oral), vehicle: other): 121 % of control
- T/C (dose: 100.0 mg/kg/injection, schedule: Q03HX024 (ip), vehicle: saline): 104 % of control
- T/C (dose: 100.0 mg/kg/injection, schedule: Q04DX003 (ip), vehicle: alkali diluted with saline): 111 % of control
- T/C (dose: 100.0 mg/kg/injection, schedule: Q## X002 (oral), vehicle: other): 98 % of control
- T/C (dose: 100.0 mg/kg/injection, schedule: Q## X003 (oral), vehicle: other): 108 % of control
- T/C (dose: 100.0 mg/kg/injection, schedule: Q## X008 (oral), vehicle: other): 101 % of control
- T/C (dose: 100.0 mg/kg/injection, schedule: Q## X016 (oral), vehicle: other): 97 % of control
- T/C (dose: 100.0 mg/kg/injection, schedule: Q## X024 (oral), vehicle: other): 101 % of control
- T/C (dose: 150.0 mg/kg/injection, schedule: Q01DX001 (ip), vehicle: alkali diluted with saline): 104 % of control
- T/C (dose: 150.0 mg/kg/injection, schedule: Q01DX001 (ip), vehicle: other): 118 % of control
- T/C (dose: 150.0 mg/kg/injection, schedule: Q03HX024 (ip), vehicle: saline): 152 % of control
- T/C (dose: 150.0 mg/kg/injection, schedule: Q08DX002 (ip), vehicle: alkali diluted with saline): 102 % of control
- T/C (dose: 150.0 mg/kg/injection, schedule: Q## X002 (ip), vehicle: other): 114 % of control
- T/C (dose: 150.0 mg/kg/injection, schedule: Q## X016 (ip), vehicle: other): 153 % of control
- T/C (dose: 200.0 mg/kg/injection, schedule: Q01DX001 (oral), vehicle: other): 103 % of control
- T/C (dose: 200.0 mg/kg/injection, schedule: Q01DX009 (ip), vehicle: saline): 119 % of control
- T/C (dose: 200.0 mg/kg/injection, schedule: Q01DX009 (oral), vehicle: carboxymethylcellulose (CMC)): 157 % of control
- T/C (dose: 200.0 mg/kg/injection, schedule: Q04DX003 (ip), vehicle: alkali diluted with saline): 112 % of control
- T/C (dose: 200.0 mg/kg/injection, schedule: Q## X002 (oral), vehicle: other): 104 % of control
- T/C (dose: 200.0 mg/kg/injection, schedule: Q## X003 (oral), vehicle: other): 112 % of control
